Experimental data taken from ChEMBL document CHEMBL3596174, “Investigation on the sucrose binding pocket of HIV-1 Integrase by molecular dynamics and synergy experiments” (Bioorg Med Chem Lett, 2015).

What was measured:
[1] = target: Human immunodeficiency virus type 1 integrase (Human immunodeficiency virus 1, UniProt Q7ZJM1); assay: Binding affinity to recombinant HIV-1 integrase catalytic core domain expressed in Escherichia coli assessed as inhibition of interaction with […] by HTRF assay
[2] = target: Human immunodeficiency virus type 1 integrase (Human immunodeficiency virus 1) (UniProt Q7ZJM1); assay: Inhibition of His-tagged HIV-1 integrase-mediated 3' processing and strand transfer reactions using 5'-ACAGGCCTAGCACGCGTCG-Biotin-3' annealed with 5'-CGACGCGTGGTAGGCCTGT-Biotin3'/5'-Cy5-ATGTGGAAAATCTCTAGCAGT-3' annealed with 5'-Cy5-TGAGCTCGAGATTTTCCACAT-3' as donar/acceptor DNA substrate preincubated for 1 hr followed by DNA and LEDGF/p75 addition measured after 90 mins by HTRF assay
Human immunodeficiency virus type 1 integrase (Human immunodeficiency virus 1), sequence (Q7ZJM1 as listed by the source): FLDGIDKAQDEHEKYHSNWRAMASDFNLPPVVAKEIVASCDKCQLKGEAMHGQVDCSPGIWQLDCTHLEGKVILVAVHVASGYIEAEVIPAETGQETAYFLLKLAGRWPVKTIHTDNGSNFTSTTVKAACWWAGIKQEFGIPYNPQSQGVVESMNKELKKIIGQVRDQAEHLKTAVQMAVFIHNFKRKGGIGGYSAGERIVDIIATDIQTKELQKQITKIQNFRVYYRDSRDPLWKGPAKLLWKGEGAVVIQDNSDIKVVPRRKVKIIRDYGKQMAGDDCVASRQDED

Human immunodeficiency virus type 1 integrase, sequence (Q7ZJM1 whole entry, the tested form may be a part): as the sequence (Q7ZJM1 as listed by the source) above

Compound | IC50 [1] | inhibition [2]
Cc1nc2ccc(Br)cc2c(-c2ccc(Cl)cc2)c1[C@H](OC(C)(C)C)C(=O)O | 0.06 µM | 
CCC[C@H](C(=O)O)c1c(C)nc2ccc(Cl)cc2c1-c1ccccc1 |  | Dose-dependent effect
Cc1nc2ccccc2c(-c2cc(F)c3c(c2C)CCCO3)c1[C@H](OC(C)(C)C)C(=O)O | 0.018 µM | 
